The target of data set [1] is Voltage-gated L-type calcium channel (diltiazem site) (Homo sapiens, UniProt O60840+Q01668+Q13698+Q13936). The experiment in a line: Ca2+ channel (L, diltiazem site) CEREP ligand profiling. The format is protein assay. As to conditions: compound concentration 10 uM; call rule not given here.
The target in data set [2] is MAO-A (Amine oxidase [flavin-containing] A) (Homo sapiens, UniProt P21397). In words: MAO-A CEREP ligand profiling. As to conditions: compound concentration 10 uM.
For data set [3], the target named is Bone morphogenetic protein receptor type-2 (Homo sapiens) (UniProt Q13873). The note with it: Compound concentration 1000.0 nM.
The target in data set [4] is Leukotriene B4 receptor 1 (Homo sapiens, UniProt Q15722). In words: Binding assay (LTB4R ).
The target of data set [5] is Vasopressin V1a receptor (Homo sapiens) (UniProt P37288). In words: V1a (h) CEREP ligand profiling. As to conditions: Compound concentration 10.0 uM.
The target in data set [6] is Dual specificity testis-specific protein kinase 1 (Homo sapiens) (UniProt Q15569). The note with it: Compound concentration 1000.0 nM.
Data set [7] has as its target Death-associated protein kinase 2 (Homo sapiens) (UniProt Q9UIK4). As to conditions: Compound concentration 1000.0 nM.
For data set [8], the target named is Vascular endothelial growth factor receptor 3 (Homo sapiens) (UniProt P35916). As to conditions: Compound concentration 1000.0 nM.
Data set [9] concerns the target T1, Muscarinic acetylcholine receptor M2 (Homo sapiens) (UniProt P08172).
T1 sequence (whole entry): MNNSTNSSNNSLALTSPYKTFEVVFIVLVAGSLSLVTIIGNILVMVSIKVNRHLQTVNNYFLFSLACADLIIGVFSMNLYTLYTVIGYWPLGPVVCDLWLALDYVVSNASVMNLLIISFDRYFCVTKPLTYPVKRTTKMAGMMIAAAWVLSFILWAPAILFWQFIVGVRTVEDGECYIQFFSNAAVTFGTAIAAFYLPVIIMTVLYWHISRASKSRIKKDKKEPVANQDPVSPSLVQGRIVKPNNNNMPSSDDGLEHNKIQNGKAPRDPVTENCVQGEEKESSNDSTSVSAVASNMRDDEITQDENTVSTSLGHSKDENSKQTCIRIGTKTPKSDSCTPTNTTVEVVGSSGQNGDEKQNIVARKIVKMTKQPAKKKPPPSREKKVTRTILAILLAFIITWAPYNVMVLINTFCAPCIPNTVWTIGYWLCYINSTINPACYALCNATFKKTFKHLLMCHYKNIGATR
The experiment in a line: M2 (h) CEREP ligand profiling. The note with it: Compound concentration 10.0 uM.

In data set [10] the target is Serine/threonine-protein kinase ICK (Homo sapiens) (UniProt Q9UPZ9). As to conditions: Compound concentration 1000.0 nM.
The target of data set [11] is Cyclin-dependent kinase-like 3 (Homo sapiens) (UniProt Q8IVW4). The note with it: Compound concentration 1000.0 nM.
For data set [12], the target named is Tyrosine-protein kinase JAK1 (Homo sapiens) (UniProt P23458). The note with it: Compound concentration 1000.0 nM.
The target of another data set is D(1A) dopamine receptor (Homo sapiens, UniProt P21728). In words: D1 (h) CEREP ligand profiling. The note with it: Compound concentration 10.0 uM.
In data set [13] the target is Serine/threonine-protein kinase pim-1 (Homo sapiens) (UniProt P11309). As to conditions: Compound concentration 1000.0 nM.
Data set [14] addresses Tyrosine-protein kinase Fgr (Homo sapiens) (UniProt P09769). As to conditions: Compound concentration 1000.0 nM.
For data set [15], the target named is Cytoplasmic tyrosine-protein kinase BMX (Homo sapiens) (UniProt P51813). The note with it: Compound concentration 1000.0 nM.
Data set [16] has as its target High affinity nerve growth factor receptor (Homo sapiens) (UniProt P04629). The note with it: Compound concentration 1000.0 nM.
Data set [17] concerns the target Sigma intracellular receptor 2 (Homo sapiens) (UniProt Q5BJF2). The note with it: Compound concentration 10.0 uM.
For data set [18], the target named is Serine/threonine-protein kinase DCLK3 (Homo sapiens) (UniProt Q9C098). The note with it: Compound concentration 1000.0 nM.
Data set [19] addresses MAP kinase-interacting serine/threonine-protein kinase 1 (Homo sapiens) (UniProt Q9BUB5). The note with it: Compound concentration 1000.0 nM.
Data set [20] has as its target Melatonin receptor type 1A (Homo sapiens) (UniProt P48039). The experiment in a line: ML1 CEREP ligand profiling. The note with it: Compound concentration 10.0 uM.
The target of data set [21] is Matrix metalloproteinase-9 (Homo sapiens) (UniProt P14780). In words: MMP-9 (h) CEREP ligand profiling. The note with it: Compound concentration 10.0 uM.
Data set [22] addresses Cyclin-dependent kinase-like 2 (Homo sapiens) (UniProt Q92772). As to conditions: Compound concentration 1000.0 nM.
In data set [23] the target is Serine/threonine-protein kinase MRCK gamma (Homo sapiens) (UniProt Q6DT37). As to conditions: Compound concentration 1000.0 nM.
In data set [24] the target is D(2) dopamine receptor (Homo sapiens) (UniProt P14416). The experiment in a line: D2S (h) (agonist site) CEREP ligand profiling. The note with it: Compound concentration 10.0 uM.
Data set [25] concerns the target Sodium-dependent serotonin transporter (Homo sapiens) (UniProt P31645). In words: 5-HT transporter (h) CEREP ligand profiling. As to conditions: Compound concentration 10.0 uM.
For data set [26], the target named is Growth hormone secretagogue receptor type 1 (Homo sapiens) (UniProt Q92847). In words: Ghrelin (h) (GHS) CEREP ligand profiling. The note with it: Compound concentration 10.0 uM.
Another data set concerns the target Phosphodiesterase 3 (Homo sapiens, UniProt Q14432+Q13370). The experiment in a line: PDE3 (h) CEREP ligand profiling. The class given is protein assay.
The target in data set [27] is Homeodomain-interacting protein kinase 2 (Homo sapiens) (UniProt Q9H2X6). The note with it: Compound concentration 1000.0 nM.
For data set [28], the target named is Mitogen-activated protein kinase kinase kinase 15 (Homo sapiens) (UniProt Q6ZN16). As to conditions: Compound concentration 1000.0 nM.
Data set [29] addresses Mitogen-activated protein kinase kinase kinase 19 (Homo sapiens) (UniProt Q56UN5). The note with it: Compound concentration 1000.0 nM.
For data set [30], the target named is Phosphodiesterase 4 (Homo sapiens) (UniProt P27815+Q08499+Q07343+Q08493). The experiment in a line: PDE4 (h) CEREP ligand profiling. The format is protein assay. The note with it: Compound concentration 10.0 uM.
Data set [31] has as its target Serine/threonine-protein kinase 24 (Homo sapiens) (UniProt Q9Y6E0). The note with it: Compound concentration 1000.0 nM.
For data set [32], the target named is 1-phosphatidylinositol 3-phosphate 5-kinase (Homo sapiens) (UniProt Q9Y2I7). As to conditions: Compound concentration 1000.0 nM.
The target of data set [33] is Mitogen-activated protein kinase kinase kinase kinase 1 (Homo sapiens) (UniProt Q92918). As to conditions: Compound concentration 1000.0 nM.
The target of data set [34] is Serine/threonine-protein kinase WNK1 (Homo sapiens) (UniProt Q9H4A3). The note with it: Compound concentration 1000.0 nM.
Data set [35] deals with Calcium-activated potassium channel (Homo sapiens) (UniProt Q92952+Q9UGI6+Q12791+O15554+Q9H2S1+A8MYU2). The experiment in a line: SK+Ca channel CEREP ligand profiling. The class given is protein assay. As to conditions: Compound concentration 10.0 uM.
Data set [36] has as its target Beta-1 adrenergic receptor (Homo sapiens) (UniProt P08588). The note with it: Compound concentration 10.0 uM.

Cyclin-dependent kinase-like 3 (Homo sapiens), sequence (Q8IVW4 whole entry, looked up): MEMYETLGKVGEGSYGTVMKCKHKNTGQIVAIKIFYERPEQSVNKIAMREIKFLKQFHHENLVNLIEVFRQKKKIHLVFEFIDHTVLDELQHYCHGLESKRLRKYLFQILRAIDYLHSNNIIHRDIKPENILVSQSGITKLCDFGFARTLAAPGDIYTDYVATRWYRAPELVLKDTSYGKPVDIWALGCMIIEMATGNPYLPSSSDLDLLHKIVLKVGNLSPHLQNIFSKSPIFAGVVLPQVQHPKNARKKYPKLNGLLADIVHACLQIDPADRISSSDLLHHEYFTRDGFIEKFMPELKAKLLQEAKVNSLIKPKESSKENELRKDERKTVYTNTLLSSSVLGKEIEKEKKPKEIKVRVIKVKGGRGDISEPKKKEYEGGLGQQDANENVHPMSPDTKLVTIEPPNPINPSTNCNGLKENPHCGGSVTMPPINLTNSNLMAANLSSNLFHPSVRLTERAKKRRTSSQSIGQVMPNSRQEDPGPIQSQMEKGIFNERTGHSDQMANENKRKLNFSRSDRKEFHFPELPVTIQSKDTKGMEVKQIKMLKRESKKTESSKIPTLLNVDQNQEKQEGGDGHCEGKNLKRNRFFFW
Serine/threonine-protein kinase pim-1 (Homo sapiens), sequence (P11309 whole entry, looked up): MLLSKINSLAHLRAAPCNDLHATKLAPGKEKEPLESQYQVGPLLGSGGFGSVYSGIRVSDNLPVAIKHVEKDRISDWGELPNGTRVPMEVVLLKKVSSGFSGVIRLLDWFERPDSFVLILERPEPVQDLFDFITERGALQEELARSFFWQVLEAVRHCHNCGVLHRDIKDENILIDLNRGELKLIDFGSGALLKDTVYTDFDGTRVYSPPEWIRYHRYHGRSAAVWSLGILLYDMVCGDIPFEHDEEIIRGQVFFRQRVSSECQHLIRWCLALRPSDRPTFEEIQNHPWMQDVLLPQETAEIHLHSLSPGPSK
Leukotriene B4 receptor 1, sequence (Q15722 whole entry): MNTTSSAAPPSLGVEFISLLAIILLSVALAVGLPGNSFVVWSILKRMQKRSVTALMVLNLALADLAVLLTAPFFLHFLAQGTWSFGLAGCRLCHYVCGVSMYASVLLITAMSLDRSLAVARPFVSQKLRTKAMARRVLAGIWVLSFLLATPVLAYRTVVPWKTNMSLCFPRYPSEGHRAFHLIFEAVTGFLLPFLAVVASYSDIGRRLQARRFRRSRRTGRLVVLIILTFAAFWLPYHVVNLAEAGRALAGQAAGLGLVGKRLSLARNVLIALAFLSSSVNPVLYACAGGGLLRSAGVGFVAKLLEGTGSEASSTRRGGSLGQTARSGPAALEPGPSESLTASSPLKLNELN
Sigma intracellular receptor 2 (Homo sapiens), sequence (Q5BJF2 whole entry): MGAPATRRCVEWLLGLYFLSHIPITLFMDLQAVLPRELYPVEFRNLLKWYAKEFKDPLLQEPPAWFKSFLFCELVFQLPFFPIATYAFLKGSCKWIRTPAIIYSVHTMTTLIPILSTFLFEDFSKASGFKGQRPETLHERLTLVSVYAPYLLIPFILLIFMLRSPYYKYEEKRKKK
Homeodomain-interacting protein kinase 2 (Homo sapiens), sequence (Q9H2X6 whole entry, looked up): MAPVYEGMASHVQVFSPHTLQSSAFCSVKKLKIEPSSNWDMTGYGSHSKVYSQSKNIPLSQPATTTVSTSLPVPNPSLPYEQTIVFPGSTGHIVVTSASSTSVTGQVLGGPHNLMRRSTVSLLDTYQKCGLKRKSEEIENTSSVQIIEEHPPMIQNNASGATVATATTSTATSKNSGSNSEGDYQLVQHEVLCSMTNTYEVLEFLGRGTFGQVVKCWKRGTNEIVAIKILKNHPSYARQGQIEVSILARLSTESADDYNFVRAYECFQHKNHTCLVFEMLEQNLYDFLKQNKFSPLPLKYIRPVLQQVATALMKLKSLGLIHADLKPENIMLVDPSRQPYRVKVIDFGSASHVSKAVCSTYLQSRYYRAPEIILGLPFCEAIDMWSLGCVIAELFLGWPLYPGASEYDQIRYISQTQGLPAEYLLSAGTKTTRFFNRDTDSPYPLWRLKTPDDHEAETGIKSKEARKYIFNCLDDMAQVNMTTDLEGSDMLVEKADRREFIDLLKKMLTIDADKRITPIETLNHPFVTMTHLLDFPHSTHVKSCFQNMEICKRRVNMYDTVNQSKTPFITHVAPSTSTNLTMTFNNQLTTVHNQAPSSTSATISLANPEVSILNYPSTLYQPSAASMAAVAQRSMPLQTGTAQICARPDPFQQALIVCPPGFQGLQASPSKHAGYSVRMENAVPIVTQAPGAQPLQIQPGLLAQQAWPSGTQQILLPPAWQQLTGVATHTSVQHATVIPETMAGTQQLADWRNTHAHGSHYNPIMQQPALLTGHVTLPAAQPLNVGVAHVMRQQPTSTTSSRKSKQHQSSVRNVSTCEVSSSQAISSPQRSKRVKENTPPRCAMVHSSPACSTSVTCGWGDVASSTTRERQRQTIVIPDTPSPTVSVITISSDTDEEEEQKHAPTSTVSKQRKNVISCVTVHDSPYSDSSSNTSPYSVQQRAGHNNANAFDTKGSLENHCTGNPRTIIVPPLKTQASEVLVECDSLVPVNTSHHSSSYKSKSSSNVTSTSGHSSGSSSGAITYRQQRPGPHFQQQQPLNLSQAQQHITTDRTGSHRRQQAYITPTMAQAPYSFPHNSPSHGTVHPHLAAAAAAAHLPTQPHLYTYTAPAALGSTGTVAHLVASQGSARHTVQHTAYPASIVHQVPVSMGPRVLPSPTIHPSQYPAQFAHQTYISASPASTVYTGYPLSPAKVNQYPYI
Vasopressin V1a receptor (Homo sapiens), sequence (P37288 whole entry, looked up): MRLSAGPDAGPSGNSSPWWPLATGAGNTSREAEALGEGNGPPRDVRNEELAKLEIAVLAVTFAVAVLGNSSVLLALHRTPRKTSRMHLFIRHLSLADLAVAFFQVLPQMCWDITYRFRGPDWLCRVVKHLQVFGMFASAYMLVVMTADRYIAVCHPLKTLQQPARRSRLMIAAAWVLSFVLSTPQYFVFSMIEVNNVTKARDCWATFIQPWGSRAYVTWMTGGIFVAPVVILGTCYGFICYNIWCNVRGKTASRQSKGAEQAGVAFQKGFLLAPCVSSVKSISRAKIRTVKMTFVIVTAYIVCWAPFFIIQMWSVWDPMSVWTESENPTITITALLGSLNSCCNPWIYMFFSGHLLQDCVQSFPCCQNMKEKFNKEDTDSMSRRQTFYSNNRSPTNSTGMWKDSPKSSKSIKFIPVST
Vascular endothelial growth factor receptor 3 (Homo sapiens), sequence (P35916 whole entry): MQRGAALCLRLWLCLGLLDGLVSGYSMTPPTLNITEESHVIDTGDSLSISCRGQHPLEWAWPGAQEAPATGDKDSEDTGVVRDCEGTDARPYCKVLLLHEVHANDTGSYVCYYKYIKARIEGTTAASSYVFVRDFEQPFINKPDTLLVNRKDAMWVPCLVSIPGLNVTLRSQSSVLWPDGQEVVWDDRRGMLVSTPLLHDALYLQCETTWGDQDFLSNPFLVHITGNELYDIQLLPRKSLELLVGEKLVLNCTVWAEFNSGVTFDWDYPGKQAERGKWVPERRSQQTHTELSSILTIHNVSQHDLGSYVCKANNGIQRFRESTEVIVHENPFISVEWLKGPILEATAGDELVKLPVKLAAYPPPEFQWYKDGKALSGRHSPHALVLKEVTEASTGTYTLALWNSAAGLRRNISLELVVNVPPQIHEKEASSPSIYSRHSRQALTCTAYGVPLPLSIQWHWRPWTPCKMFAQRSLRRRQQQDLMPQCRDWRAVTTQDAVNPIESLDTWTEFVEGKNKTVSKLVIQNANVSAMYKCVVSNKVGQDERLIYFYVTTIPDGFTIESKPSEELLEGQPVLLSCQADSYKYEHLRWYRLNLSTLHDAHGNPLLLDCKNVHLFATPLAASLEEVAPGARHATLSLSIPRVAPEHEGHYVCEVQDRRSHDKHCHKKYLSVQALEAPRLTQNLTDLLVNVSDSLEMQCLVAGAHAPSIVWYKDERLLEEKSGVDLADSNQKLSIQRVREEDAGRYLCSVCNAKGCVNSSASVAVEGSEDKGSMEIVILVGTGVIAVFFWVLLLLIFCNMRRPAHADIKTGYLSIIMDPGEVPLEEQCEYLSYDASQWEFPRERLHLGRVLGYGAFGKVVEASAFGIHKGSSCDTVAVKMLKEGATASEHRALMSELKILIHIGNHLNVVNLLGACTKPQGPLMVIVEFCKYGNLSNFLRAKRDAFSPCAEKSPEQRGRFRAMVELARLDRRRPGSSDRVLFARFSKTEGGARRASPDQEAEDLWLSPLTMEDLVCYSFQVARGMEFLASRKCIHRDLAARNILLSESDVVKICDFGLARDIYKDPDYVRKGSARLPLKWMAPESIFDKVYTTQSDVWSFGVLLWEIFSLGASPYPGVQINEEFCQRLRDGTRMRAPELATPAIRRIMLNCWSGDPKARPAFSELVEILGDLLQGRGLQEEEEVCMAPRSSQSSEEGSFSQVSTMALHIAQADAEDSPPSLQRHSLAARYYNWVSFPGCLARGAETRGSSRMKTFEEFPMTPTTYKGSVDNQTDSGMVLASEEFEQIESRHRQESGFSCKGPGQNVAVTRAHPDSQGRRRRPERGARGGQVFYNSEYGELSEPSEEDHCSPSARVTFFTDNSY
MAO-A (Amine oxidase [flavin-containing] A), sequence (P21397 whole entry): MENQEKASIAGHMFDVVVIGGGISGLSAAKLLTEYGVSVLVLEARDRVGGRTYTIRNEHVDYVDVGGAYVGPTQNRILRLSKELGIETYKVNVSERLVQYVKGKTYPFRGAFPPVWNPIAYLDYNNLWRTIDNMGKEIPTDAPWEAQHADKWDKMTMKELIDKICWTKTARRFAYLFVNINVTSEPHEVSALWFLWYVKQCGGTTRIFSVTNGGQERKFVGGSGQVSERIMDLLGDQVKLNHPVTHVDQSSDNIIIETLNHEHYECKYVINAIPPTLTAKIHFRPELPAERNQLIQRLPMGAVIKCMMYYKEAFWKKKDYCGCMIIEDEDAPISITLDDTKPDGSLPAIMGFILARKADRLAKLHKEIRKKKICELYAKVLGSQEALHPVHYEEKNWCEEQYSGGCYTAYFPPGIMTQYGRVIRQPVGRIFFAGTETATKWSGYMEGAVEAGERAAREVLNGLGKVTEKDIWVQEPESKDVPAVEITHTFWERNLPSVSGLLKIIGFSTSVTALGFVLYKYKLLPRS

Usually inhibition stands for the change of the read-out against control, counted positive when it falls. As usually defined, the Ki is the dissociation constant of the complex between target and ligand, obtained from inhibition or displacement. Lower therefore signals a stronger hold on the target. In general, IC50 refers to the point on the concentration scale where inhibition reaches its midpoint. High values mean a need for much substance, low ones inhibition by little substance. As for `COc1ccc2cc(OCC3(C(=O)O)CN(C(=O)c4ccc(F)cc4)C3)ccc2c1` [PF-04418948], the inhibition at 10 µM in data set [1] was 6% (not active); in [2], 3% (not active). Also, the residual activity was 87% in data set [3]; 98% in data set [6]; 98% in data set [7]; 75% in data set [8]; 78% in [10]; 89% in data set [11]. Moreover, the residual activity is 93% in [12]; 96% in [13]; 96% in data set [14]; 87% in [15]; 71% in [16]; 98% in data set [18]. The residual activity in [19] was 93%; in data set [22] it was 89%; in [23], 91%; in data set [27], 78%; in data set [28], 94%; in data set [29], 82%. In addition, the residual activity in [31] was 85%; in [32] it was 91%; in data set [33], 95%; in [34], 84%. In data set [4], the Ki is recorded as 4.8 µM (not active). For the same compound, the inhibition in data set [5] is -3%; in data set [9], 1%; at D(1A) dopamine receptor, 5%; in data set [17], -1.29%; in [20] it was -3%; in [21] it was 10%. Further, the inhibition is -6% in data set [24]; -8% in data set [25]; -6% in data set [26]; 78% at Phosphodiesterase 3 (Compound concentration 10.0 uM); 8% in data set [30]; -1% in data set [35]. At Phosphodiesterase 3, the IC50 came out at 3.5 µM.

For the compound `O=C(c1ccc(F)cc1)N1CC(COc2ccc(Br)cc2)(C(=O)O)C1` [PF-04475866], the inhibition in data set [36] is -6.66%.
